Reference: patent publication US5585360A, “Peptide compounds derived from boronic acid” (Adir et Compagnie, priority 1994, dated 1996)

How the values were obtained:
[1] = system: thrombin time (TT), plasma; assay: Anticoagulant activity, thrombin time (TT) in human plasma; format: biochemical, man; conditions: human platelet-depleted plasma, 2 min at 37° C.
Experimental: (§1) In the presence of a standard quantity of thrombin or of calcium thromboplastin a normal plasma coagulates in a defined and constant time, called thrombin time (TT) and prothrombin time (PT) respectively. Venous blood is collected at the elbow bend into a trisodium citrate (0.109M) solution. A plasma depleted in platelets is obtained by centrifuging the blood samples (3000 g, 15 minutes). The thrombin time is obtained with the Thrombin Prest (Stago) reagent and the prothrombin time with the Neoplastine (Stago) reagent. They are determined automatically by employing an ST4 (Stago) coagulometer. […] In these conditions the TT obtained in the control plasma is of the order of 20 seconds in man, and PT of the order of 12 seconds. The activity of an inhibitor is evaluated by its ability to lengthen these times when compared with the control. In these conditions the compounds of the invention permit a lengthening of the thrombin time and of the prothrombin time of 50-fold and more. The effect of the inhibitors is measured and the concentration which doubles the coagulation time (CTT2 for the thrombin time and CPT2 for the prothrombin time) is determined.

[2] = system: prothrombin time (PT), plasma; assay: Anticoagulant activity, prothrombin time (PT) in human plasma; format: biochemical, man; conditions: human platelet-depleted plasma, 2 min at 37° C., calcium thromboplastin
Experimental: as §1

[3] = system: thrombin time; assay: Anticoagulant activity ex vivo, oral route in the dog (thrombin time); conditions: 2.5 mg/kg oral
Experimental: (§2) After a blood sample has been taken, the products are administered orally. At specified times after the treatment the blood is sampled intravenously. The plasma is prepared, the platelets are counted and the thrombin time test is carried out.
(§3) The activity is durable (4 hours).

[4] = system: platelets; assay: Number of platelets after oral administration in the dog; format: in vivo; conditions: 2.5 mg/kg oral
Experimental: as §2, §3

[5] = target: T1, purified human urokinase (Homo sapiens, UniProt P00749); assay: Inhibition of urokinase (pNA substrate S 2444); format: biochemical; conditions: enzyme 2 nM, 30 minutes at 20° C.; read-out: CI50 Urokinase
T1 construct: purchased Choay
Experimental: (§4) In order to evaluate in vitro the selectivity of these products in respect of different serine proteases of fibrinolysis and coagulation, the same protocol is applied to purified human plasmin (2 nM, Stago), to purified human activated protein C (2 nM, Stago), to purified human activated factor X (2 nM, Calbiochem), to the tissue activator of plasminogen (2 nM, Calbiochem), to purified human urokinase (2 nM, Choay), to purified human plasma kallikrein (2 nM, Calbiochem), using as substrates different peptide para-nitroanilides: <Glu-Phe-Lys-pNA (0.50mM, S 2403, Kabi) for plasmin, N-Cbo-Arg-Gly-Arg-pNA (0.39 mM, S 2765, Kabi) for the factor Xa<Glu-Pro-Arg-pNA (0.52 mM, S 2366, Kabi) for activated protein C, H-D-Pro-Phe-Arg-pNA (0.45 mM, S 2302, Kabi) for kallikrein, H-(D)-Ile-Pro-Arg-pNA (0.48 mM, S 2288, Kabi) for the tissue activator of plasminogen and <Glu-Gly-Arg-pNA (0.56 mM, S 2444, Kabi) for urokinase.
(§5) Inhibitors, enzymes and substrates are diluted in the same buffer ([…] phosphate buffer, pH 7.4, containing 0.12M of sodium chloride and 0.05% of bovine albumin serum) and then distributed into a microplate made of polystyrene in a volume of 50 1.
(§6) The fibrin formed by the thrombin or the para-nitroanilide released by the action of the serine protease are measured spectrophotometrically at 405 nm after 5 or 30 minutes' reaction at 20° C. respectively.

[6] = system: activated cephalin time (ACT); assay: Anticoagulant activity ex vivo, i.v. route in the dog (ACT); conditions: for ACT increase index: 0.5 mg/kg i.v.
Excerpt: The dogs are left breathing freely.

[7] = target: T2, human thrombin (Homo sapiens, UniProt P00734); assay: Inhibition of thrombin (fibrinogen substrate, fibrin formation at 405 nm); format: biochemical; conditions: for IC50: thrombin 0.7 nM, preincubation 20° C. 10 minutes, fibrinogen, read-out: CI50 Thrombin
T2 construct: human thrombin (Sigma, specific activity 3220 NIHU/mg); purchased Sigma
Experimental: In order to evaluate in vitro the inhibiting activity of the boro-Arginic products on human thrombin (Sigma, specific activity 3220 NIHU/mg), purified human fibrinogen ([…], Enzyme Research Laboratories) was added to a given quantity of thrombin (0.7 nM) previously incubated with or without the inhibitor to be tested (20° C., 10 minutes).
as §5, §6

[8] = target: T3, purified human plasmin (Homo sapiens, UniProt P00747); assay: Inhibition of plasmin (pNA substrate S 2403); format: biochemical; conditions: enzyme 2 nM, 30 minutes at 20° C.; read-out: CI50 Plasmin
T3 construct: purified human plasmin (2 nM, Stago); purchased Stago
Experimental: as §4, §5, §6

[9] = target: T4, tissue activator of plasminogen (Homo sapiens, UniProt P00750); assay: Inhibition of tPA (pNA substrate S 2288); format: biochemical; conditions: enzyme 2 nM, 30 minutes at 20° C.; read-out: CI50 tPA
T4 construct: purchased Calbiochem
Experimental: as §4, §5, §6

[10] = target: T5, purified human activated protein C (Homo sapiens, UniProt P04070); assay: Inhibition of activated protein C (pNA substrate S 2366); format: biochemical; conditions: enzyme 2 nM, 30 minutes at 20° C.; read-out: CI50 PCa
T5 construct: purchased Stago
Experimental: as §4, §5, §6

[11] = target: T6, purified human activated factor X (Homo sapiens, UniProt P00742); assay: Inhibition of factor Xa (pNA substrate S 2765); format: biochemical; conditions: enzyme 2 nM, 30 minutes at 20° C.; read-out: CI50 FXa
T6 construct: purchased Calbiochem
Experimental: as §4, §5, §6

[12] = system: activated cephalin time (ACT); assay: Anticoagulant activity ex vivo, i.v. route in the rat (ACT); conditions: 0.25 mg/kg i.v.
Experimental: OFA rats, fasted or not, are anaesthetized with pentobarbital (60 mg/kg, i.p.). The carotid artery and the jugular vein are exposed and catheterized. The catheters are purged with citrated physiological saline (1/40). After installation of the catheters a sampling of 1.5 cm^3 of arterial blood is performed on 0.109 M citrate (1/9).
30 minutes later the product to be tested is administered i.v. in a volume of 1 ml.
Arterial samplings (1.5 ml) are then performed at 1 minute 30, 5, 15, 30 and 60 minutes.
At each sampling 1.5 ml of citrated physiological saline is reinjected into the animal via the carotid.
The tubes of blood are centrifuged for 5 minutes at 3000 g (preparation of the plasma).
100 1 of plasma are incubated with 100 1 of activated cephalin. The time of appearance of the coagulation phenomenon is measured after addition of 100 1 of calcium.
The results are reproduced in the following table and show the indices of increase in the coagulation time.

[13] = target: T7, purified human plasma kallikrein (Homo sapiens, UniProt P03952); assay: Inhibition of plasma kallikrein (pNA substrate S 2302); format: biochemical; conditions: enzyme 2 nM, 30 minutes at 20° C.; read-out: CI50 Kalli
T7 construct: purified human plasma kallikrein (2 nM, Calbiochem); purchased Calbiochem
Experimental: as §4, §5, §6

[14] = system: platelets; assay: Number of platelets after i.v. administration in the dog; conditions: 0.25 mg/kg i.v.
Experimental: Fasted dogs are anaesthetized with pentobarbital (30 mg/kg, i.v.). A femoral artery and a saphenous vein are exposed and catheterized. The dogs are left breathing freely.

T6 sequence (P00742 235-488 limits assumed): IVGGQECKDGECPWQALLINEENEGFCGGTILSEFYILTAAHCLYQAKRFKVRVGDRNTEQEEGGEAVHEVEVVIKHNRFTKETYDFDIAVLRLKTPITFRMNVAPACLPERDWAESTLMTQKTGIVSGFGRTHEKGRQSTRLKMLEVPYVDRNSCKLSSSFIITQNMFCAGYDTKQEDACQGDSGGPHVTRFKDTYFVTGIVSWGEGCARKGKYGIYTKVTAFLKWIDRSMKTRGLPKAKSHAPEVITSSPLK
T6 sequence (P00742 41-179 partner limits assumed): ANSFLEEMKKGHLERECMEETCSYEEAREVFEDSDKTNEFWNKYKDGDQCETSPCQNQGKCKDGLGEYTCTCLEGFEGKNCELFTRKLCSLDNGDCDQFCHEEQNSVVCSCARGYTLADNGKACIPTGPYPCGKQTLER
T7 sequence (P03952 391-638 limits assumed): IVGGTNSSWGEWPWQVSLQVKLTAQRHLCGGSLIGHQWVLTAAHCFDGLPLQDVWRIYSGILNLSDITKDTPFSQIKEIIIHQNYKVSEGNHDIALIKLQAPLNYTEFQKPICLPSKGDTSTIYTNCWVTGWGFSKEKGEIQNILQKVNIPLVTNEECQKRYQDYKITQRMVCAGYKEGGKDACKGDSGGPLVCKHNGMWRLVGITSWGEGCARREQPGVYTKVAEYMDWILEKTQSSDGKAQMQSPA
T7 sequence (P03952 20-390 partner limits assumed): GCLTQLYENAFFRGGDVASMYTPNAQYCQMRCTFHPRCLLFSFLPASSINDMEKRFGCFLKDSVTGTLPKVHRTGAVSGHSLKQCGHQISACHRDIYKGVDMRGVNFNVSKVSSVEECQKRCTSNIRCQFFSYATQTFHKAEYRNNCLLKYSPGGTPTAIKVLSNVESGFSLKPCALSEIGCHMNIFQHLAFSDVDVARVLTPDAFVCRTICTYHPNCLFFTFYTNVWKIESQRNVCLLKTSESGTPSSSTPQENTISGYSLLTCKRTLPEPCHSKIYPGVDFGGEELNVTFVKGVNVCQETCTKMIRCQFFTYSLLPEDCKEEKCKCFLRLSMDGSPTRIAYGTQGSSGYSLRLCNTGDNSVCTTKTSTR
T3 sequence (P00747 581-810 limits assumed): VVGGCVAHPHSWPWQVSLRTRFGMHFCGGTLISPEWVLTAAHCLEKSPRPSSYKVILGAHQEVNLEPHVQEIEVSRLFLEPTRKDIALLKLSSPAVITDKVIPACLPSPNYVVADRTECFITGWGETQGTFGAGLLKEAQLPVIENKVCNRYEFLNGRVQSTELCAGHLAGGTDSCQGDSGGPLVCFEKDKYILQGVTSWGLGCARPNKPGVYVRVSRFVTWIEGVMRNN
T3 sequence (P00747 97-580 partner limits assumed): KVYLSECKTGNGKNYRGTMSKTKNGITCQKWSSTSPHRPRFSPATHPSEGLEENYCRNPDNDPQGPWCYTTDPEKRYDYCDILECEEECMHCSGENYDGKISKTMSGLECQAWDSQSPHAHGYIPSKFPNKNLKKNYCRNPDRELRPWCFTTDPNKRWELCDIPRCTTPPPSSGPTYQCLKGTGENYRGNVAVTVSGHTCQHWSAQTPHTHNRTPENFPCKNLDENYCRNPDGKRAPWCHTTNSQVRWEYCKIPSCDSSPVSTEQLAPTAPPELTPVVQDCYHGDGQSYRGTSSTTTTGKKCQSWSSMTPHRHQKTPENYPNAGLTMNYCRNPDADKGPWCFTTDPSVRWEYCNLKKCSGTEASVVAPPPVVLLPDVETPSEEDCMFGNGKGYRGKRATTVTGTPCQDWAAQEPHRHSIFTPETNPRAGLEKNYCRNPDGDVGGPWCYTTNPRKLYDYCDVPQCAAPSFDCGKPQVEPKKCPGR
T4 sequence (P00750 23-562 limits assumed): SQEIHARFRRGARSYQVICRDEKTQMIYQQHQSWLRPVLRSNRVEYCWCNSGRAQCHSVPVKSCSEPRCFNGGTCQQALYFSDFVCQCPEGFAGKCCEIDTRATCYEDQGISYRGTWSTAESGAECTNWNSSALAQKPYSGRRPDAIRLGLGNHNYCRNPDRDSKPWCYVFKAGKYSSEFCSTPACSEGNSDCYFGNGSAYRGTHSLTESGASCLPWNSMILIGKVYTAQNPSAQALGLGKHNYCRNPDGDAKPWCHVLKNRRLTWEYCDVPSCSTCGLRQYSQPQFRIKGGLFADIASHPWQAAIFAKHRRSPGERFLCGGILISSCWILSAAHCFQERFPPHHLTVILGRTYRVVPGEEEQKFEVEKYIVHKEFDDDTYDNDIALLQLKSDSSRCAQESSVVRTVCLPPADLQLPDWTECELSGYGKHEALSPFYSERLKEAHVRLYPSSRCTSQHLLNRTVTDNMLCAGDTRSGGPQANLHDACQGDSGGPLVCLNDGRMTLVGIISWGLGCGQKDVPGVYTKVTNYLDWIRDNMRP
T5 sequence (P04070 212-450 limits assumed): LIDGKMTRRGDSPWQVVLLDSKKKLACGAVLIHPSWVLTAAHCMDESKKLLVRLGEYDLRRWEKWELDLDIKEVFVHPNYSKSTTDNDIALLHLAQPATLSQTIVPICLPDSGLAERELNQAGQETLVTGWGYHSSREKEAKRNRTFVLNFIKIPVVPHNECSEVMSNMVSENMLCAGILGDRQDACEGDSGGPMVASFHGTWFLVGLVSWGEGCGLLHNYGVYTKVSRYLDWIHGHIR
T5 sequence (P04070 43-197 partner limits assumed): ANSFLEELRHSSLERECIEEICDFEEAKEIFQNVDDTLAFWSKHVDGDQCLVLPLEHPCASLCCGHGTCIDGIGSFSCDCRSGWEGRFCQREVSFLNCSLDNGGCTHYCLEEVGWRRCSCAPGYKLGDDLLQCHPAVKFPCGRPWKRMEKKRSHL

Row | Molecule | CTT2 (concentration which doubles the thrombin time) [1] [µM] | CTP2 (concentration which doubles the prothrombin time) [2] [µM] | IC50 [5] [µM] | selectivity for thrombin versus other serine proteases, compared with DUP 714 ([7]; comparison of CI50 values) | IC50 [7] [µM] | IC50 [8] [µM] | IC50 [9] [µM] | IC50 [10] [µM] | IC50 [11] [µM] | IC50 [13] [µM] | other results
1 | CC(=O)NC(Cc1ccccc1)C(=O)N(CC(=O)N[C@@H](CCCSC(=N)N)B(O)O)C1CCCCC1.CC(=O)O (stereo partly drawn) [Example 4, 1-(R)-{[Ac-(R,S)Phe-(N-cyclohexyl)Gly]amino}-4-(isothioureido) butylboronic Acid Acetate] | 0.34 | 2.44 |  |  |  |  |  |  |  |  | 
2 | CC(=O)N[C@H](Cc1ccccc1)C(=O)N(CC(=O)N[C@@H](CCCSC(=N)N)B(O)O)C1CCCC1.CC(=O)O [Example 2, 1-(R )-{[Ac-(R)Phe-(N-cyclopentyl)Gly]amino}-4-(isothioureido)butylboronic Acid Acetate] | 0.20 | 2.29 | 2.5 | much more selective inhibitors of thrombin than DUP 714 | 0.00059 | 1.04 | 0.108 | 0.593 | > 100 | 0.164 | duration of activity (TT increase) [3]: 4 h; increase in the TT ([3]; 0.5 hours): 1.1; increase in the TT ([3]; 1 hour): 1.6; increase in the TT ([3]; 2 hours): 1.5; increase in the TT ([3]; 4 hours): 1.1; modification of the number of platelets [4]: without modification of the number of platelets; ACT increase index ([6]; 1.5 minutes): 9.6; ACT increase index ([6]; 5 minutes): 3.6; ACT increase index ([6]; 15 minutes): 1.9; ACT increase index ([6]; 30 minutes): 1.4; ACT increase index ([6]; 60 minutes): 1.1; thrombin inhibition compared with DUP 714 ([7]; comparison of CI50 values): as powerfully as DUP 7 14; index of increase in the coagulation time (ACT) ([12]; 1.5 minutes): 2.6; index of increase in the coagulation time (ACT) ([12]; 5 minutes): 1.8; index of increase in the coagulation time (ACT) ([12]; 15 minutes): 1.2; index of increase in the coagulation time (ACT) ([12]; 30 minutes): 1.2; index of increase in the coagulation time (ACT) ([12]; 60 minutes): 1.1
3 | CC(=O)N[C@H](Cc1ccccc1)C(=O)N1CCC[C@H]1C(=O)N[C@@H](CCCN=C(N)N)B(O)O [DUP 714, Ac-(D)Phe-Pro-Arg-boronic acid, reference compound] | 0.18 | 2.63 | 0.022 |  |  | 0.024 | 0.0053 | 0.015 | 0.081 | 0.0068 | increase in the ACT ([6]; 0.25 mg/kg i.v.): comparable with that obtained with Example 2 in a dosage of 0.5 mg/kg; thrombopenia [14]: 20%
4 | 1-(R)-{[Ac-(R)Phe-(N-cyclopentyl)Gly]amino}-4-(1N-methylguanidino)butylboronic Acid Acetate [Example 8] | 0.30 | 3.06 | > 33 | much more selective inhibitors of thrombin than DUP 714 | 0.00074 | > 33 | 0.395 | 0.458 | > 330 | 1.08 | 
5 | CC(=O)N[C@H](Cc1ccccc1)C(=O)N(CC(=O)N[C@@H](CCCSC(=N)N)B(O)O)C1CCCCC1.CC(=O)O [Example 6, 1-(R)-{[Ac-(R)Phe-(N-cyclohexyl)Gly]amino}-4-(isothioureido)butylboronic Acid Acetate] | 0.29 | 2.92 | 1.51 | much more selective inhibitors of thrombin than DUP 714 | 0.00175 | 1.26 | 0.092 | 0.467 | 10.8 | 0.181 | 
